From US20240398728A1, “STERILE TOPICAL SALINE PUTRESCINE FORMULATION AND USES THEREOF” (VIVIER CANADA INC., priority 2018, published 2024)

Assays:
[1] = target: fibroblast tissue transglutaminase (Homo sapiens, UniProt P21980); settings: in vitro and in vivo, topical, compared to controls; cited from earlier work
epidermis of eroded skin = settings: topical; animals and human epidermis; cited from earlier work
[2] = Solubility of ingredients in water noted during manufacturing; assay type: physicochemical; settings: noted by Applicant during manufacturing
Text: (§1) As such, a first heating step (to about 40 degrees Celsius) while stirring, together with the sequential addition of Allantoin followed by HPMC allowed to improve the manufacturing procedure. Propanediol was also shown to help solubilization of active ingredients in the mixture. […] Once applied on the skin, the alcohol rapidly evaporates and promotes adherence of the film forming agent (e.g., PVP) on the skin. The presence of alcohol also promotes evaporation of water. Finally, because the presence of sodium salt (saline) could interfere with active ingredients in the formulation, it is preferentially added at the end of the process.
as §1, with “the PVP (which forms a film)” for “the film forming agent (e.g., PVP)”, “also promoted” for “also promotes”, “it was” for “it is”, “process. […]” for “process.”

fibroblast tissue transglutaminase, sequence (P21980 whole entry): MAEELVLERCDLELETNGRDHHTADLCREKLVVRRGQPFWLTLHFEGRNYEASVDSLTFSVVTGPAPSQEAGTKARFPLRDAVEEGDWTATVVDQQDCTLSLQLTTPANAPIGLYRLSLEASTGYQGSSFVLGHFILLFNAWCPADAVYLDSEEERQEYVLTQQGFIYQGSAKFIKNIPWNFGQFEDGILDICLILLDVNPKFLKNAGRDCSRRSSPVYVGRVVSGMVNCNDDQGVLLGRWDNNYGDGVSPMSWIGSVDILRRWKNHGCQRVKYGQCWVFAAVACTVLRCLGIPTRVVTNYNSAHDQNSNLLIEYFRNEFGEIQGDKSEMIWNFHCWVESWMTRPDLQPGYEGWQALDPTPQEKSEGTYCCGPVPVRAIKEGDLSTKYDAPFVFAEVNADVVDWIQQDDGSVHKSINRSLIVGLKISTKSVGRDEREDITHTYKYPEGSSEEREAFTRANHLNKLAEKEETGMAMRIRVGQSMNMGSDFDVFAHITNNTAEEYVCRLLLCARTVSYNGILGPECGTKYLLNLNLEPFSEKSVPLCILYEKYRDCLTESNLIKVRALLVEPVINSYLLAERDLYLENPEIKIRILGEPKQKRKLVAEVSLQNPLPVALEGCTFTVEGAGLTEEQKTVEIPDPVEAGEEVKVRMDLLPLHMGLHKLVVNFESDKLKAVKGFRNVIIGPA

Row | solubility in water [2] | Compound | collagen cross-linking [1] | effect on the epidermis of eroded skin (barrier function, thickness of the stratum lucidum) (epidermis of eroded skin)
1 |  | NCCCCN [putrescine, 1,4-diaminobutane] | reduce collagen cross-linking in vitro and in vivo | increasing its barrier function as well as the thickness of the stratum lucidum
2 | not very soluble in water | NC(=O)NC1NC(=O)NC1=O (stereo not shown) [Allantoin] |  | 
3 | not to be very soluble in water | Alpha Bisabolol |  | 
